Test in all cases: Ba/F3 cell viability, Cell Titer Glo
One assay concerns the target EGFR L858R/T790M (Homo sapiens, UniProt P00533, L858R/T790M). The settings on record: read-out: IC50 Values; Ba/F3 cells expressing EGFR L858R/T790M, 72 hours.
In another assay the target is EGFR R776H (Homo sapiens, UniProt P00533, R776H). The settings on record: read-out: IC50 Values; Ba/F3 cells expressing EGFR R776H, 72 hours.
Another assay deals with EGFR E709K (Homo sapiens, UniProt P00533, E709K). The settings on record: read-out: IC50 Values; Ba/F3 cells expressing EGFR E709K, 72 hours.
A further assay concerns the target EGFR Ex19del/T790M/G724S (Homo sapiens, UniProt P00533, DEL746-750/G724S/T790M). Conditions: read-out: IC50 Values; Ba/F3 cells expressing EGFR Ex19del/T790M/G724S, 72 hours.
In a further assay the target is EGFR L858R T790M V843I (Homo sapiens, UniProt P00533, L858R/T790M/V843I). The settings on record: read-out: IC50 Values; Ba/F3 cells expressing EGFR L858R T790M V843I, 72 hours.
The next assay has as its target EGFR K754E (Homo sapiens, UniProt P00533, K754E). The settings on record: read-out: IC50 Values; Ba/F3 cells expressing EGFR K754E, 72 hours.
In another assay the target is EGFR H773insNPH (Homo sapiens, UniProt P00533, INS773NPH). The settings on record: read-out: IC50 Values; Ba/F3 cells expressing EGFR H773insNPH, 72 hours.
For another assay, the target named is EGFR Ex19del L718Q (Homo sapiens, UniProt P00533, DEL746-750/L718Q). Conditions: read-out: IC50 Values; Ba/F3 cells expressing EGFR Ex19del L718Q, 72 hours.
Another assay concerns the target EGFR l740duplPVAK (Homo sapiens, UniProt P00533, DUP740-745). Conditions: read-out: IC50 Values; Ba/F3 cells expressing EGFR l740duplPVAK, 72 hours.

The structures appear in SMILES notation.

Usually IC50 stands for the concentration that inhibits the measured activity by half.

Chain of EGFR l740duplPVAK (P00533 with tags, fused parts or gaps DUP740-745): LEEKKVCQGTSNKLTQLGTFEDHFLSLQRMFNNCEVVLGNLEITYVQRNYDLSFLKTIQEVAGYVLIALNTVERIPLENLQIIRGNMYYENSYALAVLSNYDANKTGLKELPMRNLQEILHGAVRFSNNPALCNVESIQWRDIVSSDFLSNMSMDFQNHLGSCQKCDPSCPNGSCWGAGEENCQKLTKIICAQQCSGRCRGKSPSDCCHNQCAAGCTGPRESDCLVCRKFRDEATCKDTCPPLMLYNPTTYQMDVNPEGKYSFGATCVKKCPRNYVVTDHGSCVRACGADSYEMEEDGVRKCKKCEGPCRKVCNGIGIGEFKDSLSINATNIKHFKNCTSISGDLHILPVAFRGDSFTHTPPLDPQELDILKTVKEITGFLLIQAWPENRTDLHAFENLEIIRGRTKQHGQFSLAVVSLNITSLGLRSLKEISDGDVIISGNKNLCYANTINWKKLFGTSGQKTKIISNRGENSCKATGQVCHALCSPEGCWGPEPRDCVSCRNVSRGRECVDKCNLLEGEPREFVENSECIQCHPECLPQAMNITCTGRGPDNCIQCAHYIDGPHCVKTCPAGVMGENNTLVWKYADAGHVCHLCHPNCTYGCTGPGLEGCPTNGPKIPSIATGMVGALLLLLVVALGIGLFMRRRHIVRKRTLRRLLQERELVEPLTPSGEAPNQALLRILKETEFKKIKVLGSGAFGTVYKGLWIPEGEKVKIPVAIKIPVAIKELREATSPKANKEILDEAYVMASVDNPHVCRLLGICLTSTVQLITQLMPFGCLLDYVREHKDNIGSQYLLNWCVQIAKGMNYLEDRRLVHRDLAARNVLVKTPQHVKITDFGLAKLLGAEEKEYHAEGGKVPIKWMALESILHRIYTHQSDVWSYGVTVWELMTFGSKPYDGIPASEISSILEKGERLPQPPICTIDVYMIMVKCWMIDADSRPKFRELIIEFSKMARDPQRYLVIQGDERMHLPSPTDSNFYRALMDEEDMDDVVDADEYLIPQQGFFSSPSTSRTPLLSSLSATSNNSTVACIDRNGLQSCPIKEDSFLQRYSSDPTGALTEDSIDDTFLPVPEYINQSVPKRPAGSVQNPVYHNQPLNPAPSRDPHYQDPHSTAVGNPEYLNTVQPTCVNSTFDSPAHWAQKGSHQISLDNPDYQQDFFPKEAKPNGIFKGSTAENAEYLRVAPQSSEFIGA
Chain of EGFR L858R T790M V843I (P00533 25-1210 T790M/V843I/L858R): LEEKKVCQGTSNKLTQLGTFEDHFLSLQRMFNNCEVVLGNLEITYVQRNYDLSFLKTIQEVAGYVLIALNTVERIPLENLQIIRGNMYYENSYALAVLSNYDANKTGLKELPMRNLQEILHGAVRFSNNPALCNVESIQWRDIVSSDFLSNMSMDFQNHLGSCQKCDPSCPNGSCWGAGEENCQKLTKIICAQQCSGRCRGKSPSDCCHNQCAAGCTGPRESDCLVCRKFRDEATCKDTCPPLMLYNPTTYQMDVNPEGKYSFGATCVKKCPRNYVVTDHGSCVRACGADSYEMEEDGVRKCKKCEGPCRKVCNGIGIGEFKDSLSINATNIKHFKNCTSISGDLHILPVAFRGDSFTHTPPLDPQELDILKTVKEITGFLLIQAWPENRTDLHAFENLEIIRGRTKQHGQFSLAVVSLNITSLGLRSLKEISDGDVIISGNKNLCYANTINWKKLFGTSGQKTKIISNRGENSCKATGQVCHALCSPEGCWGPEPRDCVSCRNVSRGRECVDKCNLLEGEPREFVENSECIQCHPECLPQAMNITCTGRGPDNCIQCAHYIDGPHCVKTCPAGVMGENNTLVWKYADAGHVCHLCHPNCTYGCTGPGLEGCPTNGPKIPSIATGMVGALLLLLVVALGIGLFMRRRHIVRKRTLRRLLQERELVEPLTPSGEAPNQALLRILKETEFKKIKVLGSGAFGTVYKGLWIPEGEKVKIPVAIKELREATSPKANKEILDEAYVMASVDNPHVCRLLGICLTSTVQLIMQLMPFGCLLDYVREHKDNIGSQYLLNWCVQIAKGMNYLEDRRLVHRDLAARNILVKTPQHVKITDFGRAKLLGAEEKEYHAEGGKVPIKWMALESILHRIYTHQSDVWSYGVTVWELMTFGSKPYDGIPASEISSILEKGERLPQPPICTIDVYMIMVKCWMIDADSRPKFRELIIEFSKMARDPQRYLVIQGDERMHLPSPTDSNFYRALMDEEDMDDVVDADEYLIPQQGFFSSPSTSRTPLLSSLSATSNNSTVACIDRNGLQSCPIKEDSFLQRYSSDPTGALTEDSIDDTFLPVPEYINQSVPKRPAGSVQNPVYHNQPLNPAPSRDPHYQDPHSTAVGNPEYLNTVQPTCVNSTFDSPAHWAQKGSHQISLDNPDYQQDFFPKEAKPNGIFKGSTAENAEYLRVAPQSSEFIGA
Chain of EGFR L858R/T790M (P00533 25-1210 T790M/L858R): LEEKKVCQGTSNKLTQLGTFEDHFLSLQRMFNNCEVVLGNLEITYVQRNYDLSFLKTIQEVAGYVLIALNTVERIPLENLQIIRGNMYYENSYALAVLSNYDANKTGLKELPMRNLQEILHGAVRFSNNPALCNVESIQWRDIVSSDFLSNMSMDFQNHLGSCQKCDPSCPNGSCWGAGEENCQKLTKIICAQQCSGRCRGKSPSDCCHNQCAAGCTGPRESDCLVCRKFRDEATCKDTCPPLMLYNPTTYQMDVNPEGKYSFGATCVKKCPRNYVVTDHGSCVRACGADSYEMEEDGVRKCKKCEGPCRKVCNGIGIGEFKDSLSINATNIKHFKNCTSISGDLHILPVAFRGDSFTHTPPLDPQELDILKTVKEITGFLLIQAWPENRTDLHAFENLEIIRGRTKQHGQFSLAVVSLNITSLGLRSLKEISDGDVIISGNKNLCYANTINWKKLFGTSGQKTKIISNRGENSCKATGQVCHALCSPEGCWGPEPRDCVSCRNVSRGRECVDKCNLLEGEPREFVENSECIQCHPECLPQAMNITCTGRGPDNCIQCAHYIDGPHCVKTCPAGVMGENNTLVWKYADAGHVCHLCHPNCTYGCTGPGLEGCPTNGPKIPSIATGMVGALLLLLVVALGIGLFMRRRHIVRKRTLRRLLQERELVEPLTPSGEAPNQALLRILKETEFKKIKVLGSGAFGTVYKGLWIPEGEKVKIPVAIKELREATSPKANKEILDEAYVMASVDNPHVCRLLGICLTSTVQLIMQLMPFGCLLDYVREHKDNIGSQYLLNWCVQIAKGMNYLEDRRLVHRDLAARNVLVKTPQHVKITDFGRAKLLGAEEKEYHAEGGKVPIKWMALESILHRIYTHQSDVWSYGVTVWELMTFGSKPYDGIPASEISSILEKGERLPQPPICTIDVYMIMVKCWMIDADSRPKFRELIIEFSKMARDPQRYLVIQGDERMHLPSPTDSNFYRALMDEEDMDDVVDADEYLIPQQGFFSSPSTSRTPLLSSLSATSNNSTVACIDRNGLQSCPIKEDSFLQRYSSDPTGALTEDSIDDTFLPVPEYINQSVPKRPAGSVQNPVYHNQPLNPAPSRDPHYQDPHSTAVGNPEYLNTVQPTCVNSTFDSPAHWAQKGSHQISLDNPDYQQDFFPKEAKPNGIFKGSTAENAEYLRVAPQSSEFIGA
Chain of EGFR R776H (P00533 25-1210 R776H): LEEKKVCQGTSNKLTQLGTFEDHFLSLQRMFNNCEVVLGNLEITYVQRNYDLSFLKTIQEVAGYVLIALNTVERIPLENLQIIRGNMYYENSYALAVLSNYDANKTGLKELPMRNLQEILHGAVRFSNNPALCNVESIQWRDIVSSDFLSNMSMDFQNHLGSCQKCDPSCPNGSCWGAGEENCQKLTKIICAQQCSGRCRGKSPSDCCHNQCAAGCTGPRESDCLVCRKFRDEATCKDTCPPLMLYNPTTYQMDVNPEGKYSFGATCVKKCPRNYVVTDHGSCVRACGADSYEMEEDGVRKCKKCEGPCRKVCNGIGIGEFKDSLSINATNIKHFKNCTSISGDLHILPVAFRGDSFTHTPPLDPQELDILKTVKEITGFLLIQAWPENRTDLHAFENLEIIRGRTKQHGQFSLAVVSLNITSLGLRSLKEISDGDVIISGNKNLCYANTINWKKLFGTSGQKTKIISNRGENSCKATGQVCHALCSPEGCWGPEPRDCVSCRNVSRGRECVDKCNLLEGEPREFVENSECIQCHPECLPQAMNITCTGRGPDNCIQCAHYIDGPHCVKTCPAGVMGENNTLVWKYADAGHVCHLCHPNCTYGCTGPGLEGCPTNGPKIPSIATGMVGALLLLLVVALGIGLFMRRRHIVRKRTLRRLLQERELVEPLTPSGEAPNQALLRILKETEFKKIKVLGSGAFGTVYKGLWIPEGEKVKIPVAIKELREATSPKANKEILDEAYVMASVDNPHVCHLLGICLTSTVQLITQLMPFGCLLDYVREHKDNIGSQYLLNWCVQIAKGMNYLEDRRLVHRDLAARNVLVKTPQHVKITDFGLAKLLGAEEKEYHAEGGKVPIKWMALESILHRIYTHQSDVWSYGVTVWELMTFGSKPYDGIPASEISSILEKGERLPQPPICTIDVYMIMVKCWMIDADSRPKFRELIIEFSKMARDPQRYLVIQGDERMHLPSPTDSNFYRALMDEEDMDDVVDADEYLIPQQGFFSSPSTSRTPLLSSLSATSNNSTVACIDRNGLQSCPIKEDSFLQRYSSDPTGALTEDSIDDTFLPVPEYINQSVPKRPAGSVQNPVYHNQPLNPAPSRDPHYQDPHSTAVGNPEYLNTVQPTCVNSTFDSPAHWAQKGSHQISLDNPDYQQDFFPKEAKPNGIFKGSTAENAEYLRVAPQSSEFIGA
Protocol for EGFR E709K: (§1) Cell viability was determined by the Cell Titer Glo assay.
(§2) Briefly, stable Ba/F3 cell lines were generated by retroviral transduction of Ba/F3 cell line for 12 hours. […] Three days after transduction, 2 μg/ml puromycin (Invitrogen) was added to the RPMI media. Cell lines were then grown in the absence of IL-3 for two weeks and cell viability was assessed every three days using the Cell Titer Glo assay (Progema).
(§3) Briefly, 2000-3000 cells per well were plated in 384-well plates (Greiner Bio-One) in technical triplicate. Cells were treated with seven different concentrations of tyrosine kinase inhibitors or vehicle alone at a final volume of 40 μL per well. After 3 days, 11 μL of Cell Titer Glo was added to each well. Plates were shaken for 15 minutes, and bioluminescence was determined using a FLUOstar OPTIMA multi-mode micro-plate reader (BMG LABTECH). Bioluminescence values were normalized to DMSO treated cells, and normalized values were plotted in GraphPad Prism using non-linear regression fit to normalized data with a variable slope.
Protocol for EGFR Ex19del L718Q: The transforming capability of the mutations was then evaluated by sustained cell viability following IL-3 deprivation. Activating EGFR mutant Ba/F3 cells were then screened against EGFR TKIs. Cell viability was determined by the Cell Titer Glo assay.
Ba/F3 cells expressing acquired atypical mutations spanning exons 18-21 were treated with inhibitors for 72 hours. […] Briefly, stable Ba/F3 cell lines were generated by retroviral transduction of Ba/F3 cell line for 12 hours. […] Three days after transduction, 2 μg/ml puromycin (Invitrogen) was added to the RPMI media. Cell lines were then grown in the absence of IL-3 for two weeks and cell viability was assessed every three days using the Cell Titer Glo assay (Progema).
as §3
Protocol for EGFR Ex19del/T790M/G724S: as §1, §3
Protocol for EGFR H773insNPH: as §1, §2, §3
Protocol for EGFR K754E: as §1, §2, §3
Protocol for EGFR L858R T790M V843I: as §1, §2, §3
Protocol for EGFR L858R/T790M: as §1, §2, §3
Protocol for EGFR R776H: as §1, §2, §3
Protocol for EGFR l740duplPVAK: as §1, §2, §3

`C=CC(=O)N1CC[C@@H](Oc2nc(Nc3ccc(N4CCC(N5CCN(C)CC5)CC4)cc3)c(C(N)=O)nc2CC)C1` [Naquotinib]: the 50% inhibitory concentration (IC50) on EGFR L858R/T790M stood at 0.00188 µM; at EGFR R776H, 0.0686 µM; on EGFR E709K it was 0.359 µM; at EGFR Ex19del/T790M/G724S, 0.00384 µM; at EGFR L858R T790M V843I it was 0.00205 µM; on EGFR K754E, 0.066 µM. The half-inhibitory concentration (IC50) at EGFR H773insNPH amounted to 0.145 µM; on EGFR Ex19del L718Q, 0.00264 µM; at EGFR l740duplPVAK, 0.0677 µM.
